Experimental data published in US20040116523A1, “Use of c4-c10 acids for preventing gram-negative bacterial infections” (priority 2000, published 2004).

Tests used:
[1] = test system: Shigella sonnei; conditions: 0.25 g/l; cited from earlier work
[2] = test system: Vibrio cholerae; conditions: 0.25 g/l; cited from earlier work
[3] = test system: Gram-positive or Gram-negative bacteria; conditions: in vitro, concentration not given; cited from earlier work
[4] = test system: S. typhi; conditions: 0.25 g/l; cited from earlier work
[5] = test system: iagA′-lacZ fusion (S. typhi strain Ty267); test: β-galactosidase activity of the iagA′-lacZ fusion in favourable LB medium; assay type: cell-based
[6] = test system: iagA′-lacZ fusion (S. typhi strain Ty267); test: as above; assay type: cell-based; conditions: 5 mM in favourable LB medium, 6 hours at 37° C.
Method: (§1) The favourable LB medium (high osmolarity and concentration of Ca^2+ions) was defined as being the standard LB medium modified so as to have a final NaCl concentration of 300 mM and a final Ca concentration of 5 mM.
Each of the strains described above was cultured at 37° C. on agar or in TCS broth. The P-galactosidase activity was determined using 4-methyl-umbelliferyl-p-D-galactopyranoside sold by the company Sigma, according to the technique of Klarsfeld et al. (Mol. Mibrobiol., 1994, 13, 585-597). The results, expressed in P-galactosidase units (fluorescence per hour and per OD600), represent the mean of the values obtained in at least three independent experiments. The standard deviations were less than 10% of the values presented. […]
The β-galactosidase activity of the iagA′-lacZ fusion was measured after incubation for 6 hours at 37° C. with shaking (200 rpm).
The S. typhi Ty267 strain (iagA′-lacZ fusion) was seeded into favourable LB medium and into favourable LB medium containing the fatty acid to be tested, in the form of its sodium salt, at the final concentration of 5 mM.

[7] = test system: sipB′-lacZ fusion (S. typhi strain Ty277); test: β-galactosidase activity of the sipB′-lacZ fusion in favourable LB medium; assay type: cell-based
Method: as §1
(§2) Each of the strains described above was cultured at 37° C. on agar or in TCS broth. The P-galactosidase activity was determined using 4-methyl-umbelliferyl-p-D-galactopyranoside sold by the company Sigma, according to the technique of Klarsfeld et al. (Mol. Mibrobiol., 1994, 13, 585-597). The results, expressed in P-galactosidase units (fluorescence per hour and per OD600), represent the mean of the values obtained in at least three independent experiments. The standard deviations were less than 10% of the values presented.
(§3) For this, the S. typhi strains Ty267, Ty272 and Ty277, which carry the iagA′-lacZ, invF′-lacZ and sipB′-lacZ fusions, respectively, (see Table I), were cultured in the favourable LB or unfavourable LB medium.
(§4) The action of these two compounds on the expression of the iagA′-lacZ, invF′-lacZ and sipB′-lacZ fusions was studied by measuring the β-galactosidase activity expressed by these fusions as a function of the time of culturing (samples removed every two hours).

[8] = test system: iagA′-lacZcat fusion in S. typhi strain Ty267; test: "Biotype 100" plate screen for carbon-based substrates that repress the iagA′-lacZcat fusion (β-galactosidase activity); assay type: cell-based; conditions: "Biotype 100" cupule, amount of substrate not known; favourable LB medium; 36 hours at 37° C.; control cupule without substrate 11 250
Method: as §2
A “Biotype 100”® plate sold by the company BioMerieux is composed of 100 microcupules. Each micro-cupule contains a dehydrated carbon-based substrate, with the exception of the first cupule, which is a control without substrate (the amount of dehydrated substrate per cupule is not given by the manufacturer).
In the context of the present example, these plates were used to search for carbon-based compounds which would block the expression of the invasion genes in Salmonella.
For this, the S. typhi strain Ty267, which is a derivative of the parental strain Ty2 carrying the iagA′-lacZcat transcriptional fusion (Table I), was cultured in TCS broth for 18 hours at 37° C. with shaking (200 rpm).
This culture was then diluted 100-fold in favourable LB medium (0.6 ml of culture for 60 ml of favourable LB), and then this suspension was used immediately to seed the 100 cupules of a “Biotype 100”® plate, in a proportion of 450 μl of suspension per cupule.
After incubation for 36 hours in an incubator at 37° C., the activity of the iagA′-lacZcat fusion in the Ty267 strain was determined for the culture of each cupule.
By comparing the value of the P-galactosidase activity measured in a cupule containing a carbon-based substrate with that of the control cupule without substrate, it was possible to investigate whether a substrate had no effect on, activated or repressed the expression of the iagA′-lacZcat fusion.
The S. typhi strain Ty267 (iagA′-lacZ fusion), suspended in the favourable LB medium, was used to seed the “Biotype 100”® plates.
The β-galactosidase activity expressed by the iagA′-lacZ fusion was determined for the culture in each cupule. With respect to the β-galactosidase activity measured in the control cupule without substrate (11 250 β-galactosidase units), no substrate caused an increase in the expression of the iagA′-lacZ fusion.

[9] = test system: S. typhi strain Ty2; test: Mobility by the U-tube culturing technique; assay type: cell-based; conditions: U tube supplemented with 5 mM
Method: The mobility of each strain was studied using the U-tube culturing technique (Popoff and Le Minor, Guide pour la preparation des serum anti-Salmonella (Guide for preparing salmonella antisera], 1997). When necessary, the culture media were supplemented with chloramphenicol (Cm) at 15 μg/ml.

[10] = test system: S. typhimurium C52; test: Splenic colonization of C57Bl/6 mice infected orally with S. typhimurium C52; assay type: in vivo
Method: The 5-6-week-old female C57Bl/6 mice used in the context of this experiment originated from the IFFA-CREDO breeding centre (LArbresle, France).
They were infected orally in the following way. The Salmonella strains were cultured in TCS broth for 18 hours at 37° C. with shaking (200 rpm). This culture was then adjusted to […] (in the stationary growth phase, 1 OD600 =1.5 ×10^9 bacteria/ml), and then the number of viable bacteria was controlled by counting on TCS agar.
On the day of infection (DO), the drinking-water bottles of the mice were replaced with bottles containing 100 ml of drinking water to which the required number of bacteria had been added.
After infection for 24 hours ([…]), the bottles containing the contaminated drinking water were replaced with bottles containing uncontaminated drinking water.
Seven days after infection (D+7), the spleens of the mice infected in this way were removed and homogenized separately in 1 ml of physiological saline containing 0.7% of NaCl.
The number of viable bacteria per spleen was determined by plating out dilutions of the homogenate, onto TCS agar.
The effect of the composition of the drinking water on the splenic colonization by Salmonella was estimated using the Student's t test.
The S. typhimurium strain C52 was used to infect C57Bl/6 mice orally.
On this figure, the number of viable bacteria is given as the mean (log10) of the values ± the standard deviation. […]

[11] = test system: tviB′-lacZ fusion (S. typhi strain Ty266); test: β-galactosidase activity of the tviB′-lacZ fusion (specificity control); assay type: cell-based; conditions: 5 mM in favourable LB medium
Method: as §2
The tviB gene has been characterized in S. typhi, and it encodes a GDP-dehydrogenase involved in the biosynthesis of the Vi antigen, which is the capsular polysaccharide of the typhus bacillus (Waxin et al., Res. Microbiol., 1993, 144, 363-371).
The results are reported on FIG. 4, in which it is seen that samples were taken every two hours in order to measure the OD600 (corresponding to the open symbols) and in order to determine the β-galactosidase activity (corresponding to the solid symbols).

[12] = test system: Salmonellae; test: Bactericidal or bacteriostatic effect on the Salmonellae at neutral pH; assay type: cell-based, Salmonella
[13] = test system: invF′-lacZ fusion (S. typhi strain Ty272); test: β-galactosidase activity of the invF′-lacZ fusion in favourable LB medium; assay type: cell-based
Method: as §1, §2, §3, §4

[14] = concentration greater than or equal to 2.5 mM, favourable LB medium

Compound | bactericidal activity in vitro on Shigella sonnei [1] | bactericidal activity in vitro on Vibrio cholerae [2] | bacteriostatic or bactericidal effect on Gram-positive or Gram-negative bacteria [3] | bactericidal activity in vitro on S. typhi [4] | decrease of the activity of the iagA′-lacZ fusion with respect to favourable LB medium without the substance ([5]; 1 mM in favourable LB medium) [%] | expression of the iagA gene (iagA′-lacZ fusion) [5, 14] | β-galactosidase activity of the iagA′-lacZ fusion (Table II) ([6]; control 12134 ± 1811) | inhibition of the expression of the iagA′-lacZ fusion in S. typhi (in words) ([6]; sodium salt) | decrease of the activity of the sipB′-lacZ fusion with respect to favourable LB medium without the substance ([7]; 1 mM in favourable LB medium) [%] | expression of the sipB gene (sipB′-lacZ fusion) [7, 14] | β-galactosidase activity expressed by the iagA′-lacZ fusion in the cupule [8] | mobility of the Ty2 strain [9] | effect on the level of splenic colonization / protection (in words) ([10]; 50 mM (EDTA 10 mM) in drinking water, 5 × 10^7 bacteria orally) | Number of viable bacteria in the spleen (mean log10) (Table III) ([10]; 50 mM each (EDTA 10 mM) in drinking water pH 7.2-7.3 from two days before infection, 5 × 10^7 bacteria (125 LD50) orally, D+7, distilled water 7.9 ± 0.3) [log10] | effect on the expression of the tviB′-lacZ fusion [11] | bactericidal or bacteriostatic effect on the Salmonellae [12] | decrease of the activity of the invF′-lacZ fusion with respect to favourable LB medium without the substance ([13]; 1 mM in favourable LB medium) [%] | expression of the invF gene (invF′-lacZ fusion) [13, 14]
CCCCCCCCCCCC(=O)O [lauric acid] | bactericidal activity | bactericidal activity | very effective | bactericidal activity |  |  |  |  |  |  |  |  |  |  |  |  |  | 
O=C([O-])c1ccccc1.[Na+] [sodium benzoate] |  |  |  |  | 50 | very strongly represses | 190 ± 17 β-galactosidase units | inhibit | 50 | very strongly represses | 245 β-galactosidase units | same mobility | no effect | 7.8 ± 0.8 | no significant effect | none of these compounds has any significant bactericidal or bacteriostatic effect | 50 | very strongly represses
